“And” between values parts separate entries of the source, which are not always exact repeats. Identical values can stand only once.

From PMC6934184, “Selective DNA-PKcs inhibition extends the therapeutic index of localized radiotherapy and chemotherapy” (The Journal of Clinical Investigation, 2019) come the findings set out here.

One assay deals with SJSA-1 tumor xenografts. The assay can be described thus: subcutaneous SJSA-1 xenograft with parenteral etoposide. The conditions noted are these: etoposide 5 mg/kg i.p., 5 consecutive days. The format is in vivo, CD-1 nude mice. How it is done: Combining systemic administration of etoposide + NU5455 in vivo
SJSA1 cells (1 x 10^7 cells/mouse in 50 µl, 50% v/v Matrigel) were implanted s.c. into the right flank of female CD-1 nude mice. When tumor volumes reached 103-121 mm3 mice were treated daily, for five consecutive days, with NU5455 (30 mg/kg or 100 mg/kg once -daily p.o. in NMP:Encapsin (30% aq):PEG4000 (1:6:3 v/v/v) ) or vehicle, followed immediately with etoposide (5 mg/kg i.p. in saline). Body weight and tumor volume measurements were taken daily during treatment and three times per week post -treatment. Tumor volume was calculated from two-dimensional electronic caliper measurements (Mitutoyo) using the equation ‘width2 x length/2’, where width was the smaller side, and length the longer dimension of the tumor. Mice were humanely killed when; (i) an adverse effect on clinical condition was evident, (ii) tumor bilateral measurements reached 10 mm x 10 mm, (iii) a tumor measurement in any di mension reached 15 mm, or (iv) at study termination. […]

Assay [1] deals with NHEJ-mediated DSB repair in HEK293T cells. The assay is described as follows: NHEJ plasmid repair assay. The class given is cell-based, Human. The conditions noted are these: 10 µM; 24 hours; AfeI or ScaI linearized plasmid. On the procedure:
The ability of NU5455 to impair the nonhomologous end joining (NHEJ) ability of cells was assessed using a modified version of a DNA repair assay developed by Nagel et al. ([52]), which measures the repair of a plasmid encoding blue fluorescent protein (BFP) and GFP linearized by either an ScaI or an AfeI restriction digestion. Full experimental details are given in Supplemental Methods.
Membranes were then washed in TBST and incubated with HRP-conjugated goat anti-mouse or anti-rabbit antibodies (P0447 and P0448 respectively, Dako) in 5% (w/v) milk/TBST at room temperature for 1-2 hours. Conjugates were detected using Clarity Western ECL Substrate (BioRad) and chemiluminescence imaged using the Fuji LAS-3000 Luminescent Image Analyzer System (Fujifilm).
Densitometry analysis was performed using AIDA Image Analyzer software (Raytest). The intensity of all bands was determined following a background subtraction, and the level of pDNA-PKcs stimulation determined by subtracting basal unstimulated pDNA-PKcs Ser2056 levels. pDNA-PKcs Ser2056 band intensity was calculated relative to total DNA-PKcs band intensity, and is given as percentage expression relative to irradiated, DMSO-treated cells. […]
violet laser with 440/50 emission filter to detect blue fluorescence using the VL1 channel. […]
Data were analyzed by FCS Express 6 Flow Research Edition (De Novo Software). […]

The subject of another assay is MCF7 cells. The assay can be described thus: clonogenic survival with 2 Gy IR, DNA repair inhibitors. The format is cell-based, Human. The conditions noted are these: 1 h before and 24 h after IR. On the procedure: Cells were washed in phosphate-buffered saline (PBS), trypsinized and counted. Cells were then reseeded at a known density in drug-free medium into 10 cm dishes (100 - 10 000 cells/dish) and incubated for 8-21 days. Colonies were fixed using Carnoys fixture (75% v/v methanol, 25% v/v acetic acid, Fisher), stained with crystal violet (0.4% w/v in water), and counted using a ColCount automated colony counter (Oxford Optronics). Cell survival was calculated as a percentage of the untreated control.
Alternatively, exponentially growing MCF7 cells were exposed to a range of concentrations of the PARP inhibitor rucaparib, the ATM inhibitor KU55933, the ATR inhibitor VE-821 or NU5455 for 1 hour prior to irradiation with 2 Gy. Cells were then incubated in the continued presence of the DNA repair inhibitors for a further 24 hours prior to replating. […]

The next assay deals with PI3K. The assay can be described thus: IGF-1-stimulated phospho-AKT Ser473 in MCF7 cells, Western blot. The format is cell-based, Human. The conditions noted are these: 1 μM, 50 ng/mL IGF-1, 30 min. How it is done: (§1) Exponentially growing MCF7 cells were exposed to a range of concentrations of NU5455 and NU7441 (0.03–10 μM) for 1 hour. To assess the ability of NU5455 and NU7441 to inhibit autophosphorylation of DNA-PKcs at Ser2056, cells were treated with 10 Gy irradiation and incubated for 30 minutes. Alternatively, to investigate the effects of NU5455 and NU7441 against PI3K-dependent phosphorylation of AKT at Ser473, cells were treated with 50 ng/mL insulin-like growth factor-1 (IGF-1; Invitrogen) for 30 minutes. Cell lysates were prepared for the detection of p–DNA-PKcs Ser2056 and total DNA-PKcs, or p–AKT Ser473 and total AKT, respectively, using Western blotting. […]
(§2) Protein lysates were quantified using the Pierce BCA Protein Assay (ThermoFisher). […]
(§3) Membranes were then washed in TBST and incubated with HRP-conjugated goat anti-mouse or anti-rabbit antibodies (P0447 and P0448 respectively, Dako) in 5% (w/v) milk/TBST at room temperature for 1-2 hours. Conjugates were detected using Clarity Western ECL Substrate (BioRad) and chemiluminescence imaged using the Fuji LAS-3000 Luminescent Image Analyzer System (Fujifilm). […]
(§4) Alternatively, basal pAKT Ser473 levels were subtracted from all other pAKT bands, and pAKT band intensity calculated relative to total AKT expression and given as a percentage relative to IGF-1 stimulated, DMSO-treated cells. […]

The target in the next assay is DNA-PK (Homo sapiens, UniProt P78527). The assay is described as follows: radiation-induced phospho-DNA-PK Ser2056 in MCF7 cells, Western blot. The class given is cell-based. Also on record: endogenous in cells; host or cells: MCF7. The conditions noted are these: 1 h pretreatment, 30 min after 10 Gy IR, read-out: IC50, radiation-induced activation of DNA-PK (phospho–DNA-PK Ser2056). On the procedure: as §1, §2, §3, §4
In general terms: A western blot detects proteins with antibodies after separation by electrophoresis.

The subject of the next assay is A549. The assay can be described thus: growth inhibition, 72 hour incubation. The class given is cell-based, Human. The conditions noted are these: read-out: Nutlin-3a GI50, individual determinations. How it is done:
(§5) Supplemental Table 3. TP53 status of cell lines used.
(§6) incubation with the compound (see Supplemental Methods). GI50 values shown represent either individual determinations or the
(§7) References: (1) Melnikova VO et al., Oncogene, […]

The test system of the next assay is Calu6. The assay can be described thus: growth inhibition, 72 hour incubation. The format is cell-based, Human. The conditions noted are these: read-out: Nutlin-3a GI50, individual determinations. How it is done: as §5, §6, §7
The subject of the next assay is HCT116. The assay can be described thus: growth inhibition, 72 hour incubation. The format is cell-based, Human. Conditions: read-out: Nutlin-3a GI50, mean with standard deviation. On the procedure: as §5, §6, §7
The next assay concerns Hep3B. The assay can be described thus: growth inhibition, 72 hour incubation. The format is cell-based, Human. The conditions noted are these: read-out: Nutlin-3a GI50, individual determinations. How it is done:
as §5, §6, §7

Another assay has as its system Huh7. The assay can be described thus: growth inhibition, 72 hour incubation. The format is cell-based, Human. Conditions: read-out: Nutlin-3a GI50, individual determinations. How it is done:
as §5, §6, §7

Another assay deals with MCF10a. The assay is described as follows: growth inhibition, 72 hour incubation. Conditions: read-out: Nutlin-3a GI50, mean with standard deviation. The class given is cell-based, Human. On the procedure:
as §5, §6, §7

The next assay relates to NHDF. The assay is described as follows: growth inhibition, 72 hour incubation. The format is cell-based, Human. Conditions: read-out: Nutlin-3a GI50, individual determination. How it is done:
as §5, §6, §7

A further assay has as its system SN40R2. The assay can be described thus: growth inhibition, 72 hour incubation. The format is cell-based, Human. The conditions noted are these: read-out: Nutlin-3a GI50, individual determination. How it is done: as §5, §6, §7
The subject of another assay is HepG2. The assay can be described thus: growth inhibition, 72 hour incubation. The conditions noted are these: read-out: Nutlin-3a GI50, mean with standard deviation. The format is cell-based, Human. How it is done:
HepG2 Human WT 1.0 ± 0.18 COSMIC […]
as §5, §6, §7

The next assay has as its system MCF7. The assay is described as follows: growth inhibition, 72 hour incubation. The class given is cell-based, Human. Conditions: read-out: Nutlin-3a GI50, mean with standard deviation. On the procedure: MCF7 Human WT 2.3 ± 0.20 COSMIC […]
as §5, §6, §7

The next assay deals with 4T1. The assay can be described thus: growth inhibition, 72 hour incubation. The class given is cell-based, Mouse. Conditions: read-out: Nutlin-3a GI50, individual determinations. On the procedure: as §5, §6, §7
For another assay, the system named is B16F10. The assay can be described thus: growth inhibition, 72 hour incubation. The format is cell-based, Mouse. Conditions: read-out: Nutlin-3a GI50, mean with standard deviation. How it is done:
as §5, §6, §7

In a further assay the test system is M2-10B4. The assay is described as follows: growth inhibition, 72 hour incubation. Conditions: read-out: Nutlin-3a GI50, mean with standard deviation. The format is cell-based, Mouse. On the procedure:
as §5, §6, §7

The next assay deals with NIH3T3. The assay is described as follows: growth inhibition, 72 hour incubation. Conditions: read-out: Nutlin-3a GI50, mean with standard deviation. The format is cell-based, Mouse. On the procedure: as §5, §6, §7
The test system of another assay is SJSA-1. The assay is described as follows: growth inhibition, 72 hour incubation. The class given is cell-based, Human. The conditions noted are these: read-out: Nutlin-3a GI50, mean with standard deviation. How it is done:
SJSA-1 Human WT 1.9 ± 0.19 COSMIC […]
as §5, §6, §7

For the molecule `COc1cc([C@@H]2c3cc4c(cc3[C@@H](O[C@@H]3O[C@@H]5CO[C@@H](C)O[C@H]5[C@H](O)[C@H]3O)[C@H]3COC(=O)[C@H]23)OCO4)cc(OC)c1O` [Etoposide, etoposide, reference compound], in the assay on SJSA-1 tumor xenografts, the “antitumor effect, monotherapy” value is reported as “relatively marginal antitumor effect”.

As to `O=c1cc(-c2cccc3c2Sc2ccccc2S3)oc(N2CCOCC2)c1` [KU55933, reference compound], in assay [1], the “repair of DNA-DSBs (NHEJ plasmid repair)” value is reported as “NU5455 but not the ATM inhibitor KU55933 inhibits NHEJ-mediated DSB repair”. In the assay on MCF7 cells (at 10 μM), the “SER (sensitization enhancement ratio), enhancement of 2 Gy IR clonogenic cell killing” value (shortened to “SER (sensitization enhancement ratio)”) is recorded as 2.3 fold.

A word on the IC50: it is the concentration that gives 50% inhibition. On to `O=c1cc(N2CCOCC2)oc2c(-c3cccc4c3sc3ccccc34)cccc12` [NU7441, reference compound], for which the “inhibition of IGF/PI3K-stimulated signaling response (phospho–AKT Ser473)” value in the assay with PI3K was 40% ± 7%. Further, the IC50 at DNA-PK is 405 nM.

Broadly, the GI50 is the concentration giving 50% growth inhibition. For the molecule `COc1ccc(C2=N[C@@H](c3ccc(Cl)cc3)[C@@H](c3ccc(Cl)cc3)N2C(=O)N2CCNC(=O)C2)c(OC(C)C)c1` [Nutlin-3a], the GI50 is 2400 nM and 2900 nM in the assay on A549; > 30000 nM in the assay with Calu6; 2100 ± 710 nM with HCT116; > 30000 nM in the assay on Hep3B; > 10000 nM and 27000 nM in the assay with Huh7; 5100 ± 2800 nM in the assay on MCF10a. For the same molecule, the GI50 with NHDF is 2700 nM; in the assay with SN40R2, > 30000 nM; in the assay on HepG2, 1000 ± 180 nM; in the assay with MCF7 it was 2300 ± 200 nM; with 4T1 it was > 30000 nM; in the assay on B16F10, 5700 ± 1800 nM. Further, the results for the GI50 in the assay with M2-10B4, with NIH3T3 and in the assay with SJSA-1 were 3300 ± 640 nM, 4000 ± 1100 nM and 1900 ± 190 nM, respectively.

`CS(=O)(=O)c1ccc(-c2cnc(N)c(C(=O)Nc3ccccc3)n2)cc1` [VE-821]: the “SER (sensitization enhancement ratio)” value in the assay on MCF7 cells (at 1 μM) amounted to 1.6 fold.

On to `CNCc1ccc(-c2[nH]c3cc(F)cc4c3c2CCNC4=O)cc1` [rucaparib], for which the “SER (sensitization enhancement ratio)” value in the assay on MCF7 cells (at 1 μM) came out at 1.4 fold.
